Results on 1 molecule are retold here after ChEMBL document CHEMBL3758174, “Discovery and Characterization of 2-Acylaminoimidazole Microsomal Prostaglandin E Synthase-1 Inhibitors” (J Med Chem, 2016).

One series concerns the target CYP3A4 (Homo sapiens, UniProt P08684). Kind of series: Time-dependent inhibition of microsomal CYP3A4 (unknown origin) using midazolam as substrate assessed as alpha-hydroxymidazolam-d4 at 10 uM pre-incubated for 12 mins before NADPH addition formation after 30 mins by LC-MS/MS analysis. Type of series: ADME. The note with it: microsomes, probe midazolam.
Series [1] in a line: Clearance in beagle dog at 2 mg/kg,po or 0.5 mg/kg, iv after 0.25 to 24 hrs by LC-MS/MS analysis. The series is classed as ADME, organism-based, Canis lupus familiaris. The note with it: in vivo.
Series [2] concerns the target T1, Cyclooxygenase (Homo sapiens) (UniProt P35354+P23219). Kind of series: Inhibition of COX in human A549 cells assessed as reduction in PGE2 production at 10 uM. The series is classed as cell-based.
A short description of series [3]: Tmax in beagle dog at 2 mg/kg,po after 0.25 to 24 hrs by LC-MS/MS analysis. Type of series: ADME, organism-based, Canis lupus familiaris. The note with it: in vivo.
A short description of series [4]: Volume of distribution at steady state in beagle dog at 2 mg/kg,po or 0.5 mg/kg, iv after 0.25 to 24 hrs by LC-MS/MS analysis. Type of series: ADME, organism-based, Canis lupus familiaris. The note with it: in vivo, read-out: Vdss.
Series [5] in a line: Oral bioavailability in beagle dog at 2 mg/kg after 0.25 to 24 hrs by LC-MS/MS analysis. Type of series: ADME, organism-based, Canis lupus familiaris. The following applies: in vivo.
Series [6] has as its target T1, Cyclooxygenase (Homo sapiens). Kind of series: Inhibition of COX in human whole blood assessed as decrease in TXB2 production up to 30 uM. The series is classed as tissue-based.
For series [7], the target named is T2, Prostaglandin E synthase (Homo sapiens, UniProt O14684).
T2 sequence (O14684 whole entry): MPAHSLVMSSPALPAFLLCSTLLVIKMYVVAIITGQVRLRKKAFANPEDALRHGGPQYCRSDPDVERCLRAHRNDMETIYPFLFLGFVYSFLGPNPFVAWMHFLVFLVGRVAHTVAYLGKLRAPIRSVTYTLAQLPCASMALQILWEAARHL
Kind of series: Inhibition of mPGES1 in rhIL-1beta-stimulated human A549 cells assessed as PGE2 level treated for 18 hrs after 30 mins pre-incubation with rhIL-1beta by EIA method. Type of series: cell-based.

Series [8] deals with T2, Prostaglandin E synthase. Kind of series: (§1) Inhibition of mPGES1 in LPS-induced human whole blood assessed as suppression of PGE2 response after 20 to 24 hrs by LC-MS/MS analysis. Type of series: tissue-based.
The target of series [9] is T3, Prostaglandin E synthase (Homo sapiens) (UniProt O14684).
T3 sequence (whole entry): T2 sequence (O14684 whole entry)
Described as §1. The series is classed as tissue-based.

In series [10] the target is T2, Prostaglandin E synthase. Kind of series: Inhibition of human microsomal PGES1 expressed in 293E cells by LC/MS/MS analysis. Type of series: cell-based.

SMILES strings stand for the structures. The source made the active and inactive calls. The rule behind the calls is not given here.

T1 sequence (P23219 whole entry, looked up): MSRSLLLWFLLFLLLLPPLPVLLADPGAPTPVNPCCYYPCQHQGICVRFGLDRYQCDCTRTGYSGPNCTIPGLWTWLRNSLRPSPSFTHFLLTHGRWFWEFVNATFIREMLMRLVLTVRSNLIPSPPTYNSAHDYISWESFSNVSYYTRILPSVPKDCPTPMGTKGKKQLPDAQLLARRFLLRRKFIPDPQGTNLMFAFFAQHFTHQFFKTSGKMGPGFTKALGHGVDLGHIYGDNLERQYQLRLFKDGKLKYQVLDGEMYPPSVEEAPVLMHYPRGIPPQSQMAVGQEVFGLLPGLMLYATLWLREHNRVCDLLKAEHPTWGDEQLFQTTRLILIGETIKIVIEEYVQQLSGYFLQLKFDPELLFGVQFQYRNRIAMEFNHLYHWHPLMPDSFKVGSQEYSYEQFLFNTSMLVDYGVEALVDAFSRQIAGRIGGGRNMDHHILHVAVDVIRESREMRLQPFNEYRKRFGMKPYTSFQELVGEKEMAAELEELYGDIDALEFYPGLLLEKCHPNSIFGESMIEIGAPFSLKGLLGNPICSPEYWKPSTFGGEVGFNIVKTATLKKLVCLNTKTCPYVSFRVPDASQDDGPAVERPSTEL
T1 sequence (P35354 whole entry, looked up): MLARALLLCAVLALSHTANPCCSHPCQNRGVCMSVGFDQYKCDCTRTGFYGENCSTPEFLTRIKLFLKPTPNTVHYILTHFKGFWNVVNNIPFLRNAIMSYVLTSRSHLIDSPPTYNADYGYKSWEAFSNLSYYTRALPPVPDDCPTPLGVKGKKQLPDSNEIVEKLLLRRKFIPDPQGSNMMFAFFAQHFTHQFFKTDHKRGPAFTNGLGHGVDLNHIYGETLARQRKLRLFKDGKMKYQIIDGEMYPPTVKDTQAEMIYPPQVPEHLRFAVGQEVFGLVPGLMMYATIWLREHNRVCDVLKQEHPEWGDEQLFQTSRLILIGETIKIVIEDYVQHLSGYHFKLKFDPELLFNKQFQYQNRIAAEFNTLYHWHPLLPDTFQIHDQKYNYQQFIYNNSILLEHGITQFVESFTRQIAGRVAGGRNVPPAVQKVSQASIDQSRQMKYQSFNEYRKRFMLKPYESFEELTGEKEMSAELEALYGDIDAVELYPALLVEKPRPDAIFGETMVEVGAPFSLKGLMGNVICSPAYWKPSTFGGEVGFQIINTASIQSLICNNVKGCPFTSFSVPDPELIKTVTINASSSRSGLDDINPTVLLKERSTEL
Sequence of CYP3A4 (P08684 whole entry): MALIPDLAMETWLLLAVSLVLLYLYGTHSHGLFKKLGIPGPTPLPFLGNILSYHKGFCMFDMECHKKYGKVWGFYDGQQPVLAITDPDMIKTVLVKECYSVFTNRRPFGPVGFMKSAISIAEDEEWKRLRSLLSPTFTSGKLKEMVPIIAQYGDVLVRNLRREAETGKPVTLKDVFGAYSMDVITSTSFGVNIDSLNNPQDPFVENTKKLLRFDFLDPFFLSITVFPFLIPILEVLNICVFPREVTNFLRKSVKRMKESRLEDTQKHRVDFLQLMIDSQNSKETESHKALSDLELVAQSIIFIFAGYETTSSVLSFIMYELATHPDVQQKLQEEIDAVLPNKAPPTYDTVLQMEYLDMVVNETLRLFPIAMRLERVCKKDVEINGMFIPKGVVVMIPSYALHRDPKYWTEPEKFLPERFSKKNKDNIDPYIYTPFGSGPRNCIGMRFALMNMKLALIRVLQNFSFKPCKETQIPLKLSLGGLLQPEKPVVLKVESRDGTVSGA

Regarding `CC(C)C(=O)NCc1ccc(C(F)F)c(C(=O)Nc2ncc[nH]2)c1`, the inhibition at 0.5 h, 10 µM on CYP3A4 was 20%. In series [1], this molecule showed a clearance of 26.1 mL/min/kg. Moreover, the inhibition result in series [2] and in series [6] was “inactive” throughout. In series [3], the time to peak (Tmax) is 15 min. Moreover, the Vd in series [4] came out at 2.27 L/kg. For the same molecule, the bioavailability in series [5] came out at 100%. Further, the concentration for half-maximal inhibition (IC50) at Prostaglandin E synthase [7] was found to be 3.15 µM; on Prostaglandin E synthase [8], 4.61 µM; at Prostaglandin E synthase [10], 2.46 µM. For the same molecule, in series [9], the IC80 stood at 31 µM.
